# Assay results from publication PMC6696315, “Inhibiting Acetylcholinesterase to Activate Pleiotropic Prodrugs with Therapeutic Interest in Alzheimer’s Disease” (Molecules, 2019).
# “And” between values parts separate entries of the source, which are not always exact repeats. Equal values may be shown once. “Also recorded” adds a separate entry of the source. Where a name gives a salt, the structure may show the parent alone.
# Key:
# [1] = molecular target: T1, human 5-HT4R (Homo sapiens, UniProt Q13639); test: 5-HT4R radioligand displacement assay ([3H]-GR113808); type: binding; settings: mean ± SEM of at least three experiments
# T1 construct: purchased Eurofins HTS110M
# [2] = molecular target: T2, AChE (Homo sapiens, UniProt P22303); test: AChE inhibition, Ellman assay; type: biochemical; design: AChE from human erythrocytes; purchased Sigma Aldrich; host or cells: human erythrocytes (natural source); settings: for inhibition at 1 µM: read-out: (h)AChE % Inhibition at 10^−6 M; for AChE inhibitory activity: result in words
# Procedure: All the synthesized phenolic derivatives and their carbamates were evaluated as potential inhibitors of human AChE, using the Ellman assay, as well as potential ligands for human 5-HT4R using a radioligand displacement assay.
# The inhibitory capacity of compounds on AChE biological activity was evaluated through the use of the spectrometric method of Ellman. Acetylthiocholine iodide and 5,5-dithiobis-(2-nitrobenzoic) acid (DTNB) were purchased from Sigma Aldrich. AChE from human erythrocytes (buffered aqueous solution, ≥500 units/mg protein (BCA), Sigma Aldrich, St. Louis, MO, USA) was diluted in 20 mM HEPES buffer pH 8, 0.1% Triton X-100 such as to have enzyme solution with 0.25 unit/mL enzyme activity. In the procedure, 100 μL of 0.3 mM DTNB dissolved in a phosphate buffer with pH 7.4 were added into the 96-well plates followed by 50 μL of the test compound solution and 50 μL of enzyme (0.05 U final). After 5 min of preincubation at 25 °C, the reaction was then initiated by the injection of 50 μL of 10 mM acetylthiocholine iodide solution. […] Assays were performed with a blank containing all components except acetylthiocholine, in order to account for non-enzymatic reactions. The reaction slopes were compared and the percent inhibition due to the presence of test compounds was calculated by the following expression: 100 − (vi/v0 × 100), where vi is the rate calculated in the presence of inhibitor and v0 is the enzyme activity.
# [3] = molecular target: T1, human 5-HT4R; test: 5-HT4R radioligand displacement assay ([3H]-GR113808); type: binding; settings: for 5-HT4R affinity: result in words
# Procedure: All the synthesized phenolic derivatives and their carbamates were evaluated as potential inhibitors of human AChE, using the Ellman assay, as well as potential ligands for human 5-HT4R using a radioligand displacement assay. […].
# For competition studies, 2.5 µg of proteins (5-HT4(b) membrane preparations, HTS110M, Eurofins. Eurofins’ 5-HT4(b) membrane preparations are crude membrane preparations made from their proprietary stable recombinant cell lines to ensure high-level of GPCR surface expression.) were incubated in duplicate at 25 °C for 60 min in the absence or the presence of 10^−6 or 10^−8M of each drug (9 was used as a reference standard) and 0.2 nM [^3H]-GR113808 (NET 1152, Perkin Elmer) in 25 mM Tris buffer (pH 7.4, 25 °C). At the end of the incubation, homogenates were filtered through Whatman GF/C filters (Alpha Biotech) pre-soaked with 0.5% polyethylenimine using a Brandel cell harvester. Filters were subsequently washed three times with 1 mL of ice-cold 25 mM Tris buffer (pH 7.4, 4 °C). Non-specific binding was evaluated in parallel in the presence of 30 µM serotonin. For some of these compounds, affinity constants were calculated from five-point inhibition curves using the GraphPad Prism 6 software and expressed as Ki ± SD.
# [4] = tested on: mice; test: CNS-activity and acute toxicity test; settings: mice, IP
# Procedure: Animals. Adult male NMRI mice (3 months old, weighing 35–40 g) from Janvier labs (Le Genest-Saint-Isle, France) were used to perform experiments. Mice were housed by ten in standard polycarbonate cages in standard controlled conditions (22 ± 2 °C, 55 ± 10% humidity) with a reversed 12 h light/dark cycle (light on at 7 pm). Food and water were available ad libitum in the home cage. All experiments were conducted (between 9 am and 3 pm) during the active–dark phase of the cycle and were in agreement with the European Directives and French law on animal experimentation (personal authorization n° 14–17 for MB and 14–60 for TF).
# CNS-activity and acute toxicity test. Behavioral and neurological changes induced by graded doses (1, 10, 100 mg/kg) of the tested derivatives were evaluated in mice, in groups of four, by a standardized observation technique at different times (30 min, 3 and 24 h) after intraperitoneal administration. […] The approximate DL50 of the compounds were also calculated through the quantification of mortality after 24 h. Amphetamine (2 mg/kg) and chlorpromazine (10 mg/kg) were used as the stimulant and depressive references, respectively.
# [5] = tested on: rodents; settings: various tests; cited from earlier work
# [6] = tested on: rodents; settings: cited from earlier work
# [7] = molecular target: T2, AChE; test: Kinetic study for AChE inhibition (Lineweaver-Burk plots); type: biochemical
# Procedure: To try to clarify the mechanism of action of 19 and 20, reciprocal plots of 1/velocity vs. 1/[substrate] were constructed at different concentrations of the substrate acetylthiocholine iodide (0.01–1 mM) by using the spectrometric method by Ellman et al.. Four concentrations of 19 were selected for the studies: 10^−6, 10^−7, 10^−8 and 10^−9 M for the kinetic analysis of AChE inhibition. Four concentrations of 20 were selected for the studies: 10^−5, 10^−6, 10^−7 and 10^−8 M for the kinetic analysis of AChE inhibition. The plots were assessed by a weighted least squares analysis that assumed the variance of velocity (ν) to be a constant percentage of ν for the entire dataset. Slopes of these reciprocal plots were then plotted against the concentration of 19 and 20 in a weighted analysis.
# [8] = molecular target: T3, (h)5-HT4(a) receptors (Homo sapiens, UniProt Q13639); test: cAMP production in COS-7 cells transfected with 5-HT4R; type: cell-based
# T3 construct: HA; expressed in transfected cells; host or cells: COS-7
# Procedure: COS-7 cells were grown in Dulbecco’s modified Eagle medium (DMEM) supplemented with 10% dialyzed fetal calf serum (dFCS) and antibiotics. Cells were transiently transfected by electroporation with plasmids encoding HA-tagged 5-HT4R (100 ng/10^6 cells), then seeded in 96-well plates (16,000 cells/well). […] After 10 min, cells were then lysed by the addition of the same volume of Triton-X100 (0.1%). Quantification of cAMP production was performed by HTRF® using the cAMP Dynamic kit (Cisbio Bioassays, Codolet, France) according to the manufacturer’s instructions.
# [9] = (h)AChE IC50, Ellman assay, mean ± SEM of at least two experiments
# T1 sequence (Q13639 whole entry): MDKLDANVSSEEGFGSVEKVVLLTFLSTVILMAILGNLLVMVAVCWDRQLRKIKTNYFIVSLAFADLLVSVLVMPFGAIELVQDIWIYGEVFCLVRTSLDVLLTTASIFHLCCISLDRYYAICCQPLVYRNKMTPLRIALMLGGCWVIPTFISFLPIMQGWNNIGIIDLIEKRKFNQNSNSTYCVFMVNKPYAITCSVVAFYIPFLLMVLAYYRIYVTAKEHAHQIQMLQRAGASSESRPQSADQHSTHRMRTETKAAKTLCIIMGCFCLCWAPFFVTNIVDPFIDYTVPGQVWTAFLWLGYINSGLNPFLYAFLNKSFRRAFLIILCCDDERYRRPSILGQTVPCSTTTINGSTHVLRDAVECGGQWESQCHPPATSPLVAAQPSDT
# T3 sequence (Q13639 1-387 isoform Q13639-2): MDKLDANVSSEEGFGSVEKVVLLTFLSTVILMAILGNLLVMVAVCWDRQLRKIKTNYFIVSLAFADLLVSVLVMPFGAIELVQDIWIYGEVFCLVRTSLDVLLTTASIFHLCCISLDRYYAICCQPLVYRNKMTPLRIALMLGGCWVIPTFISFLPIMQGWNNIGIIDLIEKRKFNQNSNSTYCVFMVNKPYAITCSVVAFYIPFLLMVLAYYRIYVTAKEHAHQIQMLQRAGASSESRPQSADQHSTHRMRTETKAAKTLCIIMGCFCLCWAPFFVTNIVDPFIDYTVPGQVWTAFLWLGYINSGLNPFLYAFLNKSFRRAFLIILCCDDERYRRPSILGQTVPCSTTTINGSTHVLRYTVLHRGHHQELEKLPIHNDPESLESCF
# T2 sequence (P22303 32-617 isoform P22303-2 limits assumed): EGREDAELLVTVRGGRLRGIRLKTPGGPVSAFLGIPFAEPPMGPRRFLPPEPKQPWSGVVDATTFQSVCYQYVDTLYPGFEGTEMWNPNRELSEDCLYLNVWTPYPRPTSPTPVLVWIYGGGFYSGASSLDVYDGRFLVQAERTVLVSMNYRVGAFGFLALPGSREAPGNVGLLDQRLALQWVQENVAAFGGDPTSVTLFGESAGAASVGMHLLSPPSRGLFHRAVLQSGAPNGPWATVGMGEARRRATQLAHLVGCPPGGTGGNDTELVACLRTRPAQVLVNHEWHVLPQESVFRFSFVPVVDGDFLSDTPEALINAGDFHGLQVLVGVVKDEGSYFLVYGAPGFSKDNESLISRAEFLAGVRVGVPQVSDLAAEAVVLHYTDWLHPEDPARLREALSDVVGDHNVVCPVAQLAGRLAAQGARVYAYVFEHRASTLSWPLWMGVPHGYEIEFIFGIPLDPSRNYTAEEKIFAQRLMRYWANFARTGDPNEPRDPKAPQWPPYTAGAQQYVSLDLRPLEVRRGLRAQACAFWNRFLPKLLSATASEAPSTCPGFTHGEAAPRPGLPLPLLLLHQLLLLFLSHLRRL
smiles,measurement,setting,value
"COc1cc(N)c(Cl)cc1C(=O)NCC1CCN(Cc2cccc(O)c2)CC1 [Compound 6, 4-Amino-5-chloro-N-[[1-[(3-hydroxyphenyl)methyl]-4-piperidyl]methyl]-2-methoxybenzamide]",Ki,[1],5.8 ± 1.2 nM
same,inhibition at 1 µM,[2],4%
same,AChE inhibitory activity,[2],devoid of any AChE inhibitory activities; also recorded: absent
"CCN(C)C(=O)Oc1cccc(CN2CCC(CCC(=O)c3cc(Cl)c(N)cc3OC)CC2)c1 [Compound 7, [3-[[4-[3-(4-Amino-5-chloro-2-methoxyphenyl)-3-oxopropyl]-1-piperidyl]methyl]phenyl] N-ethyl-N-methyl-carbamate]",IC50,[2]; [9],4150 ± 794 nM
same,IC50,"[2]; AChE IC50, value in text",4150 nM
same,(h)5-HT4R % Inhibition at 10^−8 M,[3]; 10^−8 M,3%
same,5-HT4R affinity,[3],devoid of any activity towards 5-HT4R
"CCN(C)C(=O)Oc1cccc(CN2CCC(CNC(=O)c3cc(Cl)c(N)cc3OC)CC2)c1 [Compound 9, [3-[[4-[[(4-Amino-5-chloro-2-methoxybenzoyl)amino]methyl]-1-piperidyl]methyl]phenyl] N-ethyl-N-methyl-carbamate]",IC50,[2]; [9],10100 nM
same,inhibition at 0.01 µM,[3]; 10^−8 M,13%
same,5-HT4R affinity,[3],devoid of any activity towards 5-HT4R
"CN(C)CCCN1c2ccccc2Sc2ccc(Cl)cc21 [Chlorpromazine, chlorpromazine hydrochloride, reference compound]",Symptoms (Subtoxic Doses),"[4]; 10 mg/kg, depressive reference","Hypoactivity, ataxia, sleep"
CCN(C)C(=O)Oc1cccc([C@H](C)N(C)C)c1 [Rivastigmine],effect on scopolamine-induced memory performance deficit,[5],counterbalance scopolamine-induced memory performance deficit
same,effect on memory deficits induced by MK 801,[6],ineffective in improving memory deficits induced by MK 801
"C[C@H](N)Cc1ccccc1 [Amphetamine, (+)-α-Methylphenethylamine hemisulfate, reference compound]",Symptoms (Subtoxic Doses),"[4]; 2 mg/kg, stimulant reference","Hyperactivity, exophtalmy, irritability"
"COc1cc(N)c(Cl)cc1C(=O)CCC1CCN(Cc2cccc(O)c2)CC1.O=C(O)/C=C/C(=O)O [Compound 19, 1-(4-Amino-5-chloro-2-methoxyphenyl)-3-[1-[(3-hydroxyphenyl)methyl]-4-piperidyl]propan-1-one fumaric acid salt]",Ki,[1],6.9 ± 1.2 nM
same,mechanism of AChE inhibition,[7],non-competitive AChE inhibitor; also recorded: non-competitive-type
same,% Control Agonist Response,"[8]; 5-HT as control 5-HT4R agonist, mean ± SEM",59.0 ± 3.9%
same,Profile,[8]; (h)5-HT4(a) pharmacological profile,partial 5-HT4R agonist
same,EC50,"[8]; given as Log(EC50), negative values, mean ± SEM",0.126 nM
same,IC50,[2]; [9],72 ± 1.4 nM
"COc1cc(N)c(Cl)cc1C(=O)OCC1CCN(Cc2cccc(O)c2)CC1 [Compound 5, [1-[(3-Hydroxyphenyl)methyl]-4-piperidyl]methyl 4-amino-5-chloro-2-methoxybenzoate]",Ki,[1],0.6 ± 0.4 nM
same,inhibition at 1 µM,[2],11%
same,AChE inhibitory activity,[2],devoid of any AChE inhibitory activities; also recorded: absent
"COc1cc(N)c(Cl)cc1C(=O)CCC1CCN(Cc2cccc(O)c2)CC1 [Compound 4, 1-(4-Amino-5-chloro-2-methoxyphenyl)-3-[1-[(3-hydroxyphenyl)methyl]-4-piperidyl]propan-1-one]",Ki,[1],5.1 ± 1.1 nM
same,IC50,[2]; [9],148 nM and 149 nM
"CCN(C)C(=O)Oc1cccc(CN2CCC(COC(=O)c3cc(Cl)c(N)cc3OC)CC2)c1 [Compound 8, [1-[[3-[Ethyl(methyl)carbamoyl]oxyphenyl]methyl]-4-piperidyl]methyl 4-amino-5-chloro-2-methoxybenzoate]",IC50,[2]; [9],16300 nM
same,inhibition at 0.01 µM,[3]; 10^−8 M,23%
same,5-HT4R affinity,[3],devoid of any activity towards 5-HT4R
